The record followed here is US20040191926A1 (priority 2001, published 2004).

The target of one assay is T1, PTPα (Homo sapiens, UniProt P18433).
T1 construct: The intracellular fragment of PTPa, LAR and CD45 containing both of the PTPase domains was cleaved off the fusion protein; GST (cleaved yes); made in house
As to the kind of experiment: Phosphatase panel, pNPP assay. In kind it is biochemical. The note with it: at 10 μM.

The target of a further assay is T2, PTP1B (Homo sapiens, UniProt P18031).
T2 construct: PTP1B (residues 1-321) (22); made in house; host or cells: E. coli
T2 sequence (P18031 1-321): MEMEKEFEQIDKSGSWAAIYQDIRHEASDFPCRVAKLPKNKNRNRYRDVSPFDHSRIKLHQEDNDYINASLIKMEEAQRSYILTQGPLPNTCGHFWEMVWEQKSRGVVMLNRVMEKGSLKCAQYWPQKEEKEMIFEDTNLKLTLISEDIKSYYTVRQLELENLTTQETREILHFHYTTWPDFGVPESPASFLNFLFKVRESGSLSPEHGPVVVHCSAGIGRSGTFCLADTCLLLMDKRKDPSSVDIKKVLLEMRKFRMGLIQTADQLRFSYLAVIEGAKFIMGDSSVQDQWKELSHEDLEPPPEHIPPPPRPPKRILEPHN
The experiment in a line: PTPase activity assay with pNPP substrate. In kind it is biochemical.

A further assay deals with T3, Yersinia PTP (Yersinia enterocolitica, UniProt P15273).
T3 construct: made in house; host or cells: E. coli
As to the kind of experiment: biochemical.

Another assay deals with T4, PP2Cα (Homo sapiens, UniProt P35813).
T4 sequence (P35813 1-382): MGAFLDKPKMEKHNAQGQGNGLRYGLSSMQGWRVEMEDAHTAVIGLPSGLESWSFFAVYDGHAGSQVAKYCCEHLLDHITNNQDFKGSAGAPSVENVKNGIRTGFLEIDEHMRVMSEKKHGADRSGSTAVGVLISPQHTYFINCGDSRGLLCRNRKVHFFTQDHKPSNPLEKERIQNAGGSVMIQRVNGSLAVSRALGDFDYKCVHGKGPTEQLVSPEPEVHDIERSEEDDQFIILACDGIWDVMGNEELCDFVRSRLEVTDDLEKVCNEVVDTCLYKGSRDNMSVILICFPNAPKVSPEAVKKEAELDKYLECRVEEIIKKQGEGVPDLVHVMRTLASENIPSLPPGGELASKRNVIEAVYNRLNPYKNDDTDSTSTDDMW
As to the kind of experiment: Phosphatase panel, pNPP assay. In kind it is biochemical. The conditions noted are these: at 10 μM.

The target of the next assay is T5, HePTP (Homo sapiens, UniProt P35236).
T5 construct: (His)6; made in house
T5 sequence (P35236 1-360): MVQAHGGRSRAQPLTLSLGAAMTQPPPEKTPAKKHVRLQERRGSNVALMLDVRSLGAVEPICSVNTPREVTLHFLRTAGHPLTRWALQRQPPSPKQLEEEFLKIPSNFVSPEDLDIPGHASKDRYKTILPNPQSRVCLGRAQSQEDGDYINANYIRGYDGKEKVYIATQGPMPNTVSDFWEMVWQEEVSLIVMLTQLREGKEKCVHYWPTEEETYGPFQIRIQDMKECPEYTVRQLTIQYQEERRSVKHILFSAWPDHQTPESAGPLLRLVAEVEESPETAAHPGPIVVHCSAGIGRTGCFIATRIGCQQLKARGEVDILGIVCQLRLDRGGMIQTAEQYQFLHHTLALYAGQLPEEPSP
The experiment in a line: Phosphatase panel, pNPP assay. In kind it is biochemical. The conditions noted are these: at 10 μM.

The subject of a further assay is MKP3. The experiment in a line: Phosphatase panel, pNPP assay. The conditions noted are these: at 10 μM. In kind it is biochemical.
Another assay deals with T6, CD45 (Homo sapiens, UniProt P08575).
T6 construct: The intracellular fragment of PTPa, LAR and CD45 containing both of the PTPase domains was cleaved off the fusion protein; GST (cleaved yes); made in house
T6 sequence (P08575 599-1306 limits assumed): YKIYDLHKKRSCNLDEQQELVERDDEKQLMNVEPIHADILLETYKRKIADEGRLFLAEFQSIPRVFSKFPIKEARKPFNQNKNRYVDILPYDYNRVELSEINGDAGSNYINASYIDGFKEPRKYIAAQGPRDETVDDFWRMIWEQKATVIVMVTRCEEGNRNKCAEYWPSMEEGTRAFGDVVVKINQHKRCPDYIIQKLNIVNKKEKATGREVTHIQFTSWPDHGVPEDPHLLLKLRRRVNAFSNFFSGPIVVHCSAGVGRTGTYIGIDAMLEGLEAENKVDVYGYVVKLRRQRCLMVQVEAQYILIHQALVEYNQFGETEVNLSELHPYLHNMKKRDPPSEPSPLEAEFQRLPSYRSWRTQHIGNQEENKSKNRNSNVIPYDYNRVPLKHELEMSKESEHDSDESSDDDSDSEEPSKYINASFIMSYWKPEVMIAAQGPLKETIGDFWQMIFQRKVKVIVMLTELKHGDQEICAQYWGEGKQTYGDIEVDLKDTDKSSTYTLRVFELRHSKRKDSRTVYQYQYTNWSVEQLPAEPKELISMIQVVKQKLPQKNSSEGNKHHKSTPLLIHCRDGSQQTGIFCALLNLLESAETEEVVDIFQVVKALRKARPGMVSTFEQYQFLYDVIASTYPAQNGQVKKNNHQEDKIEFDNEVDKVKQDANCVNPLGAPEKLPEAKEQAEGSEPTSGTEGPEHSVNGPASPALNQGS
As to the kind of experiment: Phosphatase panel, pNPP assay. In kind it is biochemical. The conditions noted are these: at 10 μM.

T3 sequence (P15273 whole entry): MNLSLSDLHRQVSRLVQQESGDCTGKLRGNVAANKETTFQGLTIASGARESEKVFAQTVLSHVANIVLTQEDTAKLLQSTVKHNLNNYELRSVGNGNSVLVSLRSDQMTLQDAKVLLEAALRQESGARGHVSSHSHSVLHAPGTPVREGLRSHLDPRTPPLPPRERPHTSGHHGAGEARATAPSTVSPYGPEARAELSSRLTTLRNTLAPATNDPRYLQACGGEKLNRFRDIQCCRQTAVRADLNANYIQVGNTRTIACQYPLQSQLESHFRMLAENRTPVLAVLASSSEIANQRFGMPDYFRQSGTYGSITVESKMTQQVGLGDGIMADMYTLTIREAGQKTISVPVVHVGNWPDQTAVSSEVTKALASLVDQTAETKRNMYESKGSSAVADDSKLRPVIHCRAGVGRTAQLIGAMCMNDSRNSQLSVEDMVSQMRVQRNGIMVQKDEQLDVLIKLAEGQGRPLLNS

For `NC(=O)C(Cc1ccc(C(F)(F)P(=O)(O)O)cc1)NC(=O)C(CC(=O)O)NC(=O)Cc1ccc(C(F)(F)P(=O)(O)O)cc1` (centres unmarked) [Compound 40], the “Inhibition Potency” value on PTPα, on PP2Cα, on HePTP, in the assay with MKP3 and at CD45 was “No inhibition at 10 μM” throughout. Moreover, at PTP1B (panel of Table 2), the “preference for PTP1B versus nearly all phosphatases examined” value is reported as “greater than three orders of magnitude”. On PTP1B (with respect to the substrate pNPP), the mode of inhibition result is listed as “competitive”. The half-inhibitory concentration (IC50) – broadly, the point on the concentration scale where inhibition reaches its midpoint – against Yersinia PTP turned out to be 1600 nM.
